Broadly, the GI50 is the concentration giving 50% growth inhibition. One may read the Ki as the equilibrium dissociation constant of an inhibitor or competing ligand from its target.

Active and inactive are the calls of the source. The calls are words filed in the database; no cut-off is given here.

Two compounds from ChEMBL document CHEMBL5241131, “2-Anilino-4-(1-methyl-1H-pyrazol-4-yl)pyrimidine-derived CDK2 inhibitors as anticancer agents: Design, synthesis & evaluation” (Bioorg Med Chem, 2023) can be followed below.

For assay [1], the system named is OVCAR-5. The assay is described as follows: Antiproliferative activity against human OVCAR-5 cells assessed as inhibition of cell growth incubated for 72 hrs by MTT assay. The assay is classed as functional. For orientation: Formazan colour is commonly taken as a measure of viable cells.
The target in assay [2] is Cyclin-dependent kinase 1/cyclin B (Homo sapiens, UniProt P06493). The assay is described as follows: Inhibition of CDK1/Cyclin B (unknown origin) assessed as inhibition constant incubated for 30 to 60 mins presence of dithiothreitol by Cheng-Prusoff equation analysis. The assay is classed as protein-complex assay.
The target in assay [3] is Cyclin-dependent kinase 2/cyclin E (Homo sapiens, UniProt P24941). The assay is described as follows: Inhibition of CDK2/cyclin E (unknown origin) assessed as inhibition constant incubated for 30 to 60 mins presence of dithiothreitol by Cheng-Prusoff equation analysis. The class given is protein-complex assay.
In assay [4] the target is Cyclin-dependent kinase 5/CDK5 activator 1 (Homo sapiens, UniProt Q00535). The assay is described as follows: Inhibition of CDK5/p25 (unknown origin) assessed as inhibition constant incubated for 30 to 60 mins presence of dithiothreitol by Cheng-Prusoff equation analysis. The class given is protein-complex assay.
Cyclin-dependent kinase 5/CDK5 activator 1, sequence (Q00535 whole entry): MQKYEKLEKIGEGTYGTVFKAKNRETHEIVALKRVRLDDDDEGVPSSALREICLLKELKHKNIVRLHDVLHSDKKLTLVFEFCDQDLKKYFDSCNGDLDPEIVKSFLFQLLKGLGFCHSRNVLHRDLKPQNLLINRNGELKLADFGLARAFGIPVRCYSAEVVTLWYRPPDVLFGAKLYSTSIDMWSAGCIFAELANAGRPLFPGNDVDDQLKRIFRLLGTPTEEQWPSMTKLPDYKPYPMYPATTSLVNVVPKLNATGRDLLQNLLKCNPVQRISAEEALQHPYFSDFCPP
Cyclin-dependent kinase 5/CDK5 activator 1, sequence (Q15078 whole entry, further chain): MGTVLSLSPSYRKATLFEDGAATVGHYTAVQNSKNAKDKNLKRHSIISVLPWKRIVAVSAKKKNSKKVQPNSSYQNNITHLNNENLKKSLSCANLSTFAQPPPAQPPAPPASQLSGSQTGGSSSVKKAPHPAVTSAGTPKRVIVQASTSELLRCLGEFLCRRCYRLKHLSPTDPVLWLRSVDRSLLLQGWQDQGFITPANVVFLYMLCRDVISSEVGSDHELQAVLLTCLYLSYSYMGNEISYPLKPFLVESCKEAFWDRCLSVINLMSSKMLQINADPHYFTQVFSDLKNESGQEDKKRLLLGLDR
Assay [5] addresses CDK9/cyclin T1 (Homo sapiens, UniProt P50750). The assay can be described thus: Inhibition of CDK9/cyclin T1 (unknown origin) assessed as inhibition constant incubated for 30 to 60 mins presence of dithiothreitol by Cheng-Prusoff equation analysis. The class given is protein-complex assay.
In assay [6] the test system is A2780. The assay can be described thus: Antiproliferative activity against human A2780 cells assessed as inhibition of cell growth incubated for 72 hrs by MTT assay. The class given is functional.
In assay [7] the test system is U-937. The assay is described as follows: Antiproliferative activity against human U-937 cells assessed as inhibition of cell growth incubated for 72 hrs by MTT assay. The assay is classed as functional.
The subject of assay [8] is MV4-11. The assay can be described thus: Antiproliferative activity against human MV4-11 cells assessed as inhibition of cell growth incubated for 72 hrs by MTT assay. The assay is classed as functional.
Assay [9] concerns MDA-MB-231. The assay is described as follows: Antiproliferative activity against human MDA-MB-231 cells assessed as inhibition of cell growth incubated for 72 hrs by MTT assay. The assay is classed as functional.
In assay [10] the test system is NCI-H460. The assay can be described thus: Antiproliferative activity against human NCI-H460 cells assessed as inhibition of cell growth incubated for 72 hrs by MTT assay. The assay is classed as functional.
Assay [11] relates to NCI-H82. The assay is described as follows: Antiproliferative activity against human NCI-H82 cells assessed as inhibition of cell growth incubated for 72 hrs by MTT assay. The assay is classed as functional.
The subject of assay [12] is U-251. The assay can be described thus: Antiproliferative activity against human U-251 cells assessed as inhibition of cell growth incubated for 72 hrs by MTT assay. The assay is classed as functional.
In assay [13] the test system is HCT-116. The assay is described as follows: Antiproliferative activity against human HCT-116 cells assessed as inhibition of cell growth incubated for 72 hrs by MTT assay. The assay is classed as functional.
Assay [14] relates to HT-29. The assay is described as follows: Antiproliferative activity against human HT-29 cells assessed as inhibition of cell growth incubated for 72 hrs by MTT assay. The class given is functional.
Assay [15] concerns KM12. The assay can be described thus: Antiproliferative activity against human KM12 cells assessed as inhibition of cell growth incubated for 72 hrs by MTT assay. The assay is classed as functional.
Assay [16] concerns COLO 205. The assay can be described thus: Antiproliferative activity against human COLO 205 cells assessed as inhibition of cell growth incubated for 72 hrs by MTT assay. The assay is classed as functional.
In assay [17] the test system is ES-2. The assay can be described thus: Antiproliferative activity against human ES2 cells assessed as inhibition of cell growth incubated for 72 hrs by MTT assay. The class given is functional.
Assay [18] relates to OAW-28. The assay can be described thus: Antiproliferative activity against human OAW-28 cells assessed as inhibition of cell growth incubated for 72 hrs by MTT assay. The class given is functional.
For assay [19], the system named is OV-90. The assay is described as follows: Antiproliferative activity against human OV-90 cells assessed as inhibition of cell growth incubated for 72 hrs by MTT assay. The class given is functional.
The nature of assay [20]: Antiproliferative activity against human COV318 cells assessed as inhibition of cell growth incubated for 72 hrs by MTT assay. The assay is classed as functional.
The nature of assay [21]: Antiproliferative activity against human COV504 cells assessed as inhibition of cell growth incubated for 72 hrs by MTT assay. The class given is functional.
Assay [22] deals with HCT-116. The assay can be described thus: Induction of cell cycle arrest in human HCT-116 cells assessed as accumulation of cells at sub G1 phase at 0.5 uM incubated for 24 hrs by propidium iodide staining based flow cytometry (reference value: 0.24%). The assay is classed as functional.
Assay [23] deals with HCT-116. The assay can be described thus: Induction of cell cycle arrest in human HCT-116 cells assessed as accumulation of cells at sub G1 phase at 1 uM incubated for 24 hrs by propidium iodide staining based flow cytometry (reference value: 0.24%). The class given is functional.
Assay [24] deals with HCT-116. The assay can be described thus: Induction of cell cycle arrest in human HCT-116 cells assessed as accumulation of cells at G1 phase at 0.5 uM incubated for 24 hrs by propidium iodide staining based flow cytometry (reference value: 51.33%). The assay is classed as functional. (In flow cytometry, cells or beads pass a laser one at a time.)
Assay [25] deals with HCT-116. The assay can be described thus: Induction of cell cycle arrest in human HCT-116 cells assessed as accumulation of cells at G1 phase at 1 uM incubated for 24 hrs by propidium iodide staining based flow cytometry (reference value: 51.33%). The assay is classed as functional.
Assay [26] deals with HCT-116. The assay can be described thus: Induction of cell cycle arrest in human HCT-116 cells assessed as accumulation of cells at S phase at 0.5 uM incubated for 24 hrs by propidium iodide staining based flow cytometry (reference value: 18.01%). The class given is functional.
Assay [27] deals with HCT-116. The assay can be described thus: Induction of cell cycle arrest in human HCT-116 cells assessed as accumulation of cells at S phase at 1 uM incubated for 24 hrs by propidium iodide staining based flow cytometry (reference value: 18.01%). The class given is functional.
In assay [28] the test system is HCT-116. The assay can be described thus: Induction of cell cycle arrest in human HCT-116 cells assessed as accumulation of cells at G2/M phase at 0.5 uM incubated for 24 hrs by propidium iodide staining based flow cytometry (reference value: 28.37%). The assay is classed as functional.
In assay [29] the test system is HCT-116. The assay can be described thus: Induction of cell cycle arrest in human HCT-116 cells assessed as accumulation of cells at G2/M phase at 1 uM incubated for 24 hrs by propidium iodide staining based flow cytometry (reference value: 28.37%). The assay is classed as functional.
The test system of assay [30] is HCT-116. The assay can be described thus: Induction of apoptosis in human HCT-116 cells assessed as viable cells at 0.5 uM incubated for 72 hrs by AnnexinV-FITC/propidium iodide staining based flow cytometry (reference value: 93.43%). The assay is classed as functional. Conditions: read-out: Activity.
The subject of assay [31] is HCT-116. The assay is described as follows: Induction of apoptosis in human HCT-116 cells assessed as early apoptotic cells at 0.5 uM incubated for 72 hrs by AnnexinV-FITC/propidium iodide staining based flow cytometry (reference value: 2.95%). The assay is classed as functional.
Assay [32] deals with HCT-116. The assay is described as follows: Induction of apoptosis in human HCT-116 cells assessed as late apoptotic cells at 0.5 uM incubated for 72 hrs by AnnexinV-FITC/propidium iodide staining based flow cytometry (reference value: 2.91%). The class given is functional.
The subject of assay [33] is HCT-116. The assay can be described thus: Induction of apoptosis in human HCT-116 cells assessed as necrotic cells at 0.5 uM incubated for 72 hrs by AnnexinV-FITC/propidium iodide staining based flow cytometry (Rvb =0.71%). The class given is functional.
For assay [34], the system named is HCT-116. The assay is described as follows: Induction of apoptosis in human HCT-116 cells assessed as viable cells at 1 uM incubated for 72 hrs by AnnexinV-FITC/propidium iodide staining based flow cytometry (reference value: 93.43%). The assay is classed as functional. To be noted: read-out: Activity.
Assay [35] relates to HCT-116. The assay is described as follows: Induction of apoptosis in human HCT-116 cells assessed as early apoptotic cells at 1 uM incubated for 72 hrs by AnnexinV-FITC/propidium iodide staining based flow cytometry (reference value: 2.95%). The assay is classed as functional.
The subject of assay [36] is HCT-116. The assay is described as follows: Induction of apoptosis in human HCT-116 cells assessed as late apoptotic cells at 1 uM incubated for 72 hrs by AnnexinV-FITC/propidium iodide staining based flow cytometry (reference value: 2.91%). The class given is functional.
Assay [37] relates to HCT-116. The assay is described as follows: Induction of apoptosis in human HCT-116 cells assessed as necrotic cells at 1 uM incubated for 72 hrs by AnnexinV-FITC/propidium iodide staining based flow cytometry (Rvb =0.71%). The assay is classed as functional.
The target in assay [38] is Cyclin-dependent kinase 2 (Homo sapiens) (UniProt P24941). The assay can be described thus: Inhibition of CDK2 in human HCT-116 cells assessed as reduction in phosphorylation at Serine 807/811 residue incubated for 24 hrs by Western blot analysis. The class given is cell-based. Conditions: dose 0.5-1 µM. (In general: In western blotting, separated proteins are transferred to a membrane and probed.)

Assay [39] shares this target. The assay can be described thus: Inhibition of CDK2 in human HCT-116 cells assessed as reduction in phosphorylation at Thr821 residue incubated for 24 hrs by Western blot analysis. The class given is cell-based. Conditions: dose 0.5-1 µM.
For assay [40], the system named is HCT-116. The assay can be described thus: Downregulation of CDC25B expression in human HCT-116 cells at 0.5 to 1 uM incubated for 24 hrs by Western blot analysis. The assay is classed as functional, cell-based. To be noted: dose 0.5-1 µM.
For assay [41], the system named is HCT-116. The assay is described as follows: Induction of DNA damage in human HCT-116 cells assessed as increase in H2AX phosphorylation at Ser139 residue at 0.5 to 1 uM incubated for 24 hrs by Western blot analysis. The assay is classed as functional, cell-based. Conditions: dose 0.5-1 µM.
In assay [42] the test system is HCT-116. The assay can be described thus: Induction of apoptosis in human HCT-116 cells assessed as increase in cleaved PARP level at 0.5 to 1 uM incubated for 24 hrs by Western blot analysis. The assay is classed as functional, cell-based. Conditions: dose 0.5-1 µM.
Assay [43] addresses CDK9/Cyclin T (Homo sapiens, UniProt P50750). The assay is described as follows: Inhibition of CDK9/cyclin T (unknown origin) assessed as inhibition constant. The class given is protein-complex assay.

CDK9/cyclin T1, sequence (O60563 whole entry): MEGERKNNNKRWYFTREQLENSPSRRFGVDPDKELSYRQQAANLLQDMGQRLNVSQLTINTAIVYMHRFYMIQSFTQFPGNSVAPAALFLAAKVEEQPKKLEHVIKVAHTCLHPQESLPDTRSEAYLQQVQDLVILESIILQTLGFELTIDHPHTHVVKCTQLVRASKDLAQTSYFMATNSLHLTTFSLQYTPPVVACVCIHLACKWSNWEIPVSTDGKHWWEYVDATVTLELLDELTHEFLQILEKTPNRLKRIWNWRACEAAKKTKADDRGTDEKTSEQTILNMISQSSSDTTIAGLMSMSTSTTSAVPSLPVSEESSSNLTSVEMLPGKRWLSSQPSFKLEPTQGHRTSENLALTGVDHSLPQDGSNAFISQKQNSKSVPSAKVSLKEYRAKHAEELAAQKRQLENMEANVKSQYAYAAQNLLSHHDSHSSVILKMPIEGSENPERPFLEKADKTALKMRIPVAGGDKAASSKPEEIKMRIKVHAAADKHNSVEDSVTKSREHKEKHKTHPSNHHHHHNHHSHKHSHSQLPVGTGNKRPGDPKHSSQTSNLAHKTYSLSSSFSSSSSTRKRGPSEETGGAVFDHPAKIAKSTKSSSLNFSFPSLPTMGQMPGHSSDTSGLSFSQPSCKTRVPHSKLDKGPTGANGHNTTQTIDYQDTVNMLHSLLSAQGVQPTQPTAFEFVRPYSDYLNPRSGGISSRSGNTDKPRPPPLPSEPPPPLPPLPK
CDK9/cyclin T1, sequence (P50750 whole entry): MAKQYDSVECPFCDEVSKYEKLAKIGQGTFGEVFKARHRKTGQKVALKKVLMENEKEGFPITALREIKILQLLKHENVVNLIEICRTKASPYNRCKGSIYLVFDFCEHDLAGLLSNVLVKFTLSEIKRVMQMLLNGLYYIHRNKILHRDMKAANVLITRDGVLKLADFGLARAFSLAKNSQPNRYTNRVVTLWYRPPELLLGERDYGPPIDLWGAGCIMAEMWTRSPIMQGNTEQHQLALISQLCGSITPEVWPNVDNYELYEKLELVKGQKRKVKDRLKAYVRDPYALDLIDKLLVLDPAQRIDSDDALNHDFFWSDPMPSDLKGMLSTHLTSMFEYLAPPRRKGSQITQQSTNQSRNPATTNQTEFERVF
CDK9/Cyclin T, sequence (O60563 whole entry): as the sequence (O60563 whole entry) above
CDK9/Cyclin T, sequence (P50750 whole entry): as the sequence (P50750 whole entry) above
CDK9/Cyclin T, sequence (O60583 whole entry, further chain): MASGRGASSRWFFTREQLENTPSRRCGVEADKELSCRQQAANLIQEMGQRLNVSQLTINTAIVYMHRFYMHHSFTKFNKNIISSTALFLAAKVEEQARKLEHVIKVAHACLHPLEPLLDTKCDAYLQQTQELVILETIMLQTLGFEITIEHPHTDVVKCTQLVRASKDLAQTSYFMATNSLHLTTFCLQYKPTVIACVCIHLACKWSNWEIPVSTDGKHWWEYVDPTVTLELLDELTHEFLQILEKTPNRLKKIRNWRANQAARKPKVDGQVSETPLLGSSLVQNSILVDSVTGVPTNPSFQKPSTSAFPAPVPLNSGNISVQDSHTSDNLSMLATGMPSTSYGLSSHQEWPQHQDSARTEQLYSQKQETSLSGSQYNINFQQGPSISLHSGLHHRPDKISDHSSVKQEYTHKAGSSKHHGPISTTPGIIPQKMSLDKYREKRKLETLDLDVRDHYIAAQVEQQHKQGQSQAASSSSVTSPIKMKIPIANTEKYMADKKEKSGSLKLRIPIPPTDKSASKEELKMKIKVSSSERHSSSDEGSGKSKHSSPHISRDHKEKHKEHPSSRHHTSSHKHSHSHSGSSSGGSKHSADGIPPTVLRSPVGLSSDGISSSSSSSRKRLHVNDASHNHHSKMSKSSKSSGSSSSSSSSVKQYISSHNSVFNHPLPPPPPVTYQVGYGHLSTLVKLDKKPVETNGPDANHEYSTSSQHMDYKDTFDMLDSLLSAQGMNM

In the case of `Cn1cc(-c2nc(Nc3ccc(S(N)(=O)=O)cc3)ncc2Cl)cn1`, the GI50 in [1] came out at 108 nM; in [6] it was 74 nM; in [7], 145 nM; in [8], 88 nM; in assay [9], 472 nM; in assay [10], 527 nM. For the same compound, the GI50 in assay [11] was determined as 183 nM; in assay [12], 695 nM; in assay [13], 186 nM; in assay [14], 291 nM; in [15] it was 558 nM; in [16], 194 nM. The GI50 in [17] came to 285 nM; in assay [18], 780 nM; in assay [19] it was 444 nM; in assay [20] it was 545 nM; in assay [21], 768 nM. For the same compound, the Ki turned out to be 5 nM in [2], 1 nM in assay [3], 33 nM in assay [4] and 17 nM in [5]. For the same compound, the Activity in [22] is on record as 0.51%; in [23], 2.11%; in assay [24] it was 4.24%; in assay [25], 27.94%; in assay [26] it was 7.94%; in assay [27], 18.5%. In addition, the Activity in [28] worked out at 86.28%; in [29], 52.06%; in assay [31] it was 12.2%; in [32] it was 9.6%; in assay [33], 1.19%; in assay [35], 4.78%. Besides, the Activity in assay [36] is 5.01%; in assay [37], 1.83%. Besides, the viability at 0.5 µM in [30] is 77%. In addition, in [34], the viability at 1 µM was determined as 78.4%. Besides, the inhibition result in assay [38] and in assay [39] was “Dose-Dependent Effect” in each case. The result in assay [40] and in [42] was Active. The result in assay [41] was inactive.

Consider `C[C@@]1(O)CCC[C@H]1n1c(=O)c(C(F)F)cc2cnc(NC3CCN(S(C)(=O)=O)CC3)nc21` [EBVACICLIB], for which, in assay [43], the Ki is under 19 nM.
